# Measurements reported in patent US10793520B2, “Sulfonylaminobenzamide compound and pest control agent” (Nippon Soda Co., Ltd., priority 2016, dated 2020).
# Columns and labels:
# Caenorhabditis elegans = assay: Efficacy test against Caenorhabditis elegans (in vitro test); conditions: 48 h, final concentration 50 ppm, mixed instars, 2 days at 25° C., read-out: nematode mortality rate against Caenorhabditis elegans
# Experimental: (§1) Two hundred μL of a suspension containing about 50 mixed instars of Caenorhabditis elegans was dispensed into each well of a 96-well microplate, and 0.2 μL of a 10,000 ppm dimethylsulfoxide solution of the compound of the present invention was injected into each well to achieve a final concentration of 50 ppm. Mortality was investigated after 2 days treatment at 25° C., and the nematode mortality rate was calculated. […] The test was repeated.
# Meloidogyne incognita [1] = assay: Efficacy test against Meloidogyne incognita (in vitro test); conditions: 48 h, final concentration 50 ppm, second-instar larvae (L2), 2 days at 15° C., read-out: nematode mortality (still) rate against Meloidogyne incognita
# Experimental: as §1, with “second-instar larvae (L2)” for “mixed instars”, “Meloidogyne incognita” for “Caenorhabditis elegans”, “15°” for “25°”
# Spodoptera litura = assay: Efficacy test against Spodoptera litura (cabbage leaf dip); assay type: in vivo; conditions: foliar, 144 h, cabbage leaves soaked 30 seconds, second-instar larvae, 6 days after larvae release, read-out: mortality rate against Spodoptera litura
# Experimental: (§2) Five parts of the compound of the present invention, 93.6 parts of dimethylformamide and 1.4 parts of a polyoxyethylene alkyl aryl ether were mixed together and dissolved to obtain an emulsion (1) containing 5% of the active constituent.
# (§3) The mortality rate was calculated using the following equation. Mortality rate (%)=(number of dead pests/number of test pests)×100
# The emulsion (1) was diluted with water to achieve a concentration of the compound of the present invention of 125 ppm. Cabbage leaves were soaked in the diluted liquid for 30 seconds. These cabbage leaves were then placed in a Petri dish, and five second-instar larvae of Spodoptera litura were released into the dish. The Petri dish was placed in a temperature-controlled room at a temperature of 25° C. and a humidity of 60%. Mortality was investigated 6 days after larvae release, and the mortality rate was calculated. The test was repeated.
# Aedes aegypti = assay: Contact/ingestion efficacy test against Aedes aegypti larvae; assay type: in vivo; conditions: final concentration 12.5 μM, first-instar larvae, after 48 hours, 28° C., 80% RH, read-out: mortality rate against Aedes aegypti
# Experimental: A DMSO solution of the compound of the present invention was diluted with water to obtain a 125 μM dilute solution. Ten first-instar larvae of Aedes aegypti were placed in each well of a 96-well microtiter plate, the above dilute liquid was added in a ratio of 1/10, and a test was conducted at a final concentration of 12.5 μM. The samples were incubated in a temperature-controlled room (28° C., 80% RH), and after 48 hours of treatment with the compound, the mortality of the larvae was investigated. The test was repeated.
# Mythimna separata = assay: Efficacy test against Mythimna separata (treated artificial feed); conditions: in vivo
# Experimental: as §2, §3
# First, 0.8 g of an artificial feed (Insecta LFS, manufactured by Nosan Corporation) and 1 μl of the emulsion (I) were mixed thoroughly, and 0.2 g of the resulting mixture was placed in each of the treatment areas of a plastic test container (volume: 1.4 ml) to complete preparation of a test feed.
# Two second-instar larvae of Mythimna separata were inoculated into each treatment area, and the test container was sealed with a plastic lid. The sealed container was placed in a temperature-controlled room at 25° C., and the mortality rate and the amount of feed consumed were determined on the fifth day. The test was repeated. Further, a test performed under the same conditions, but with the exception of excluding the compound of the present invention from the emulsion (1), was used as a control.
# Ascaridia galli = assay: Efficacy test against Ascaridia galli (in vitro, L3 larvae, MEC); conditions: activity against at least one type of target parasitic worm: Ascaridia galli L3 or Oesophagostomum dentatum L3/L4
# Experimental: Using the gut-welling larval stages of two parasitic worms: namely, the third stage larvae (L3) of Ascaridia galli, and the third and fourth stage larvae (L3 and L4 respectively) of Oesophagostomum dentatum, the bioactivity of compounds of the present invention were investigated in vitro. When conducting these tests, DMSO solutions of the compounds of the present invention were prepared at various concentrations and incubated in the wells of a 96-well microtiter plate. Subsequently, 20 parasitic worm larvae were inoculated into each well. The bioactivity was determined by inspection under a microscope. The inspection under a microscope included evaluations of the mortality rate, injury, motility, development progression, and neutral red uptake by the larvae compared with a DMSO control.
# Dirofilaria immitis = assay: Efficacy test against Dirofilaria immitis (in vitro, Mf and L4); conditions: 10 μM, 72 hours, 37° C.
# From the text: Using the microfilarial stage and the fourth stage larvae (Mf and L4 respectively) of Dirofilaria immitis, the bioactivity of compounds of the present invention were investigated in vitro. The Mf was collected from the blood of infected dogs, and 500 microfilariae were inoculated into each well of a 96-well microtiter plate. The L4 larvae was obtained by allowing L3 larvae collected from infected mosquitoes to undergo a single molt, and 10 of these L4 larvae were inoculated into each well. Subsequently, a 10 mM DMSO solution of the compound of the present invention was prepared at various concentrations and added to each well in a ratio of 1/1,000, and a test was then conducted at a final concentration of 10 μM. Incubation was performed at 37° C. in an environment containing 5% carbon dioxide, and 72 hours after treatment with the compound, the mortality and growth inhibition were determined. The test was repeated.
# Meloidogyne incognita [2] = assay: Efficacy test against Meloidogyne incognita (clubroot formation suppression test on cucumber); assay type: in vivo; conditions: 125 ppm, 1 ml irrigated on culture medium with cucumber seeds; 200 eggs; after 14 days; relative to untreated sample
# Experimental: as §2
# The emulsion (I) was diluted with water to achieve a concentration of the compound of the present invention of 125 ppm. A plastic container with a diameter of 5 cm was filled with 7 g of a culture medium, and cucumber seeds were planted. The culture medium was irrigated with 1 ml of the above dilute liquid, and then inoculated with 200 eggs of Meloidogyne incognita. The container was then placed in a temperature-controlled room at a temperature of 25° C. and a humidity of 60%, and after 14 days, the clubroot formation suppression ratio (%) relative to an untreated sample was calculated from the number of clubroots formed on the roots of the cucumber plants. The test was repeated. Clubroot formation suppression ratio (%)=(1−Nt/Nc)×100
# Nt: Total number of club roots formed in two treated samples after 14 days
# Nc: Total number of club roots formed in two untreated samples after 14 days
SMILES,"mortality rate against Mythimna separata, or amount of feed consumed relative to control (Mythimna separata)",also measured
"O=C(Nc1ccc(C(F)(F)F)cc1)c1ccc(C(F)(F)F)cc1NS(=O)(=O)C(F)(F)F [a-9, 4-(trifluoromethyl)-N-[4-(trifluoromethyl)phenyl]-2-(trifluoromethylsulfonylamino)benzamide]",,mortality at 50 ppm (Caenorhabditis elegans): ≥ 80%; mortality at 50 ppm (Meloidogyne incognita [1]): ≥ 80%; mortality at 125 ppm (Spodoptera litura): ≥ 80%; mortality at 12.5 µM (Aedes aegypti): ≥ 80%
O=C(Nc1ccc(F)c(C(F)(F)F)c1)c1ccc(OC(F)(F)F)cc1NS(=O)(=O)C(F)(F)F [a-25],"100%, or the amount of feed consumed was 10% or less",MEC (minimum effective concentration) (Ascaridia galli): ≤ 25 µM
O=C(Nc1ccc(C(F)(F)F)cc1)c1ccc(OC(F)(F)F)cc1NS(=O)(=O)C(F)(F)F [a-26],"100%, or the amount of feed consumed was 10% or less",mortality rate or growth inhibition rate (Dirofilaria immitis; fourth stage larvae (L4)): at least 90%; mortality rate or growth inhibition rate (Dirofilaria immitis; microfilarial stage (Mf)): at least 90%
COC(=O)c1cc(Cl)c(Cl)cc1NC(=O)c1ccc(C(F)(F)F)cc1NS(=O)(=O)C(F)(F)F [a-80],"100%, or the amount of feed consumed was 10% or less",clubroot formation suppression ratio against Meloidogyne incognita (Meloidogyne incognita [2]): ≥ 80%
O=C(Nc1ccc(C(F)(F)F)cc1)c1cc(Br)c(Cl)cc1NS(=O)(=O)C(F)(F)F [a-124],"100%, or the amount of feed consumed was 10% or less",
COC(=O)c1c(NC(=O)c2ccc(C(F)(F)F)cc2NS(=O)(=O)C(F)(F)F)ccc(Br)c1F [a-126],"100%, or the amount of feed consumed was 10% or less",
O=C(Nc1ccc(C(F)(F)F)cc1)c1cc(F)c(F)cc1NS(=O)(=O)C(F)(F)F [a-127],"100%, or the amount of feed consumed was 10% or less",
O=C(Nc1ccc(C(F)(F)F)cc1)c1cc(Cl)c(Cl)cc1NS(=O)(=O)C(F)(F)F [a-128],"100%, or the amount of feed consumed was 10% or less",
O=C(Nc1ccc(C(F)(F)F)cc1)c1cc(Cl)c(F)cc1NS(=O)(=O)C(F)(F)F [a-129],"100%, or the amount of feed consumed was 10% or less",
COC(=O)c1ccc(C(F)(F)F)cc1NC(=O)c1cc(Br)c(Cl)cc1NS(=O)(=O)C(F)(F)F [a-131],"100%, or the amount of feed consumed was 10% or less",
COC(=O)c1cc(F)c(F)cc1NC(=O)c1cc(Cl)c(Br)cc1NS(=O)(=O)C(F)(F)F [a-132],"100%, or the amount of feed consumed was 10% or less",
CC(=O)c1ccc(C(F)(F)F)cc1NC(=O)c1ccc(C(F)(F)F)cc1NS(=O)(=O)C(F)(F)F [a-134],"100%, or the amount of feed consumed was 10% or less",
O=C(Nc1ccc(C(F)(F)F)cc1-n1cccn1)c1ccc(C(F)(F)F)cc1NS(=O)(=O)C(F)(F)F [a-135],"100%, or the amount of feed consumed was 10% or less",
COC(=O)c1ccc(C(F)(F)F)cc1NC(=O)c1cc(Cl)c(F)cc1NS(=O)(=O)C(F)(F)F [a-137],"100%, or the amount of feed consumed was 10% or less",
O=C(Nc1ccc(F)c(F)c1)c1ccc(C(F)(F)F)cc1NS(=O)(=O)C(F)(F)F [a-138],"100%, or the amount of feed consumed was 10% or less",
O=C(Nc1cc(C(F)(F)F)ccc1-c1nnco1)c1ccc(C(F)(F)F)cc1NS(=O)(=O)C(F)(F)F [a-139],"100%, or the amount of feed consumed was 10% or less",
O=C(Nc1ccc(F)c(C(F)(F)F)c1)c1ccc(Cl)cc1NS(=O)(=O)C(F)(F)C(F)(F)C(F)(F)C(F)(F)F [a-141],"100%, or the amount of feed consumed was 10% or less",
O=C(Nc1ccc(F)c(F)c1)c1cc(Br)c(Cl)cc1NS(=O)(=O)C(F)(F)F [a-143],"100%, or the amount of feed consumed was 10% or less",
O=C(NCc1ccc(Cl)cc1)c1ccc(C(F)(F)F)cc1NS(=O)(=O)C(F)(F)F [b-1],"100%, or the amount of feed consumed was 10% or less",
CC(C)(NC(=O)c1ccc(C(F)(F)F)cc1NS(=O)(=O)C(F)(F)F)c1ccc(Cl)cc1 [b-2],"100%, or the amount of feed consumed was 10% or less",
CC(NC(=O)c1ccc(C(F)(F)F)cc1NS(=O)(=O)C(F)(F)F)c1ncc(C(F)(F)F)cc1Cl (centres unmarked) [b-4],"100%, or the amount of feed consumed was 10% or less",
CCC(NC(=O)c1ccc(C(F)(F)F)cc1NS(=O)(=O)C(F)(F)F)c1ccc(C(F)(F)F)cn1 (centres unmarked) [b-6],"100%, or the amount of feed consumed was 10% or less",
